Test [1] concerns histamine, leukotriene C4/D4/E4, prostaglandin D2 and E2 in nasal lavage fluid. In words: Mediators (histamine, leukotrienes, prostaglandins) in nasal lavage fluid after intranasal ragweed challenge. Type of test: in vivo, Beagle dogs. Here is the method: Ragweed sensitized beagle dogs (n=5) with preexisiting nasal and airway allergic responses were utilized in the animal study described in this Example. Dogs served as their own control and initially were treated with vehicle (sterile water) and then rested for 5 weeks prior to receiving the test compound. […] Based on the aerosol testing only 1.6 mg/dog could be delivered by inhalation during a 15 minute exposure (20 mg/ml solution). In addition, each dog received twice daily an intranasal instillation of 30 mg (2×375 μl of 20 mg/ml in each nostril) given within 30 minutes after the end of the inhalation exposures.
FIG. 1 summarizes the study design for characterizing the effects of CGP on rhinitis symptoms in ragweed sensitized Beagle dogs. The baseline nasal cavity volume was first measured 3 days (day −3) before each of the vehicle and CGP treatments. The dogs were treated with vehicle or CGP (day 0) twice daily with the target dosage described above. Three days into the vehicle or CGP treatment, nasal challenge with ragweed was performed (day 3). Treatment with vehicle or CGP continued during the assessment of rhinitis endpoints, e.g., total treatment duration=6 days (day 0-5) for each of the vehicle and CGP treatments. There were 5 weeks following the first intranasal RW challenge during the vehicle treatment and the CGP treatment.
Vehicle (sterile water) was given twice daily by inhalation (15 minutes) followed by intranasal instillation of water (2×250 μl in each nostril). […] The test-article and the compound solution were prepared in the morning of each treatment day. Vehicle and test-article were administered by inhalation and intranasal instillation twice a day. Dosing of vehicle or test compound was achieved by utilizing a face mask connected to a jet nebulizer for inhalation delivery followed by intranasal instillation in both nostrils using an Accuspray device.
Rhinitis assessments were conducted using one or more of the following tests. • Nasal cavity geometry (AcR) pre/post antigen challenge in both nares • 1. time 0 (just prior to RW instillation) • 2. at 15, 30, 45, 60, 75, 90 min, 24 h and 48 h post RW challenge • Nasal lavage of both nares at baseline and at 24 h (Day 4) and 48 h (Day 5) post RW instillation and only one side at 15, 30, 45 and 60 min post RW challenge (Day 3) • 1. Release of histamine, leukotrienes and prostaglandins in nasal lavage fluid baseline (prior to compound or RW treatment/challenge), 15, 30, 45, 60 min and 24 h post RW instillation • 2. Nasal lavage cells from the baseline (Day-3), 24 h (Day 4) and 48 h (Day 5) hour lavage were used for determination of inflammatory cell differentials • 3. Excess nasal lavage fluid was frozen for analysis of cytokines. • Cardiovascular readouts (heart rate, O2 saturation, body temperature) throughout nasal congestion measurement.
While under anesthesia a flexible plastic catheter was inserted several centimeters into the dog's nare. The nare was washed with a phosphate buffered saline solution (PBS; 3×5 ml for collection of cells [baseline, 24 and 48 h post RW challenge]; 1×5 ml for collection of fluid for mediators [15, 30, 45, and 60 minutes post RW challenge]).
Total nasal cells were determined using an automatic cell counter. Cells were spun onto slides by cytocentrifugation and stained with a modified Wright-Giemsa stain. At least four hundred inflammatory cells (or less if applicable) were counted and the percentage of specific cell types determined for each animal (slides in duplicates, 200 cells per slide). The first lavage fluid sample (after centrifugation) was frozen separately for mediator analysis. Mediator analysis for histamine, leukotrienes, and prostaglandins were performed according to the kit manufacturer instructions (Immunotech—Beckman Coulter Company #IM2015, Neogen Corporation #406410, Cayman Chemical Company: PGE2—#514010, PGD2—#512011, respectively). […]

For test [2], the system named is human subject having a respiratory condition. Nature of the test: Application of CGP (forced nasal lavage, spray/mist) to a human subject with post nasal drip, nasal obstruction and chronic cough. Type of test: in vivo. To be noted: one subject. An excerpt:
CGP was incorporated into samples of a lavage or a spray product at varying concentrations, along with different sweetening/moisturizing components (sorbitol, glycerin) at varying levels (0.5% to 7.5% by weight), appropriate food/drug grade fungistats and bacteristats (methyl paraben and benzalkonium chloride), and light flavorings of several types (peppermint, spearmint and orange) in some iterations.
A first human subject for laboratory/home trials was a person in good general health. […] The subject has experienced a decades-long post nasal drip (PND) as an adult, nasal obstruction (mucus, septum). The subject has experienced coughs that have been of weeks-long and, on occasion, months-long duration, following seasonal flu or colds. The subject has experienced chronic throat-clearing from PND and chronic cough even when not post-respiratory illness, which they ascribe to bronchitis. […] The subject breathed almost exclusively through mouth as a child because of nasal obstruction. The subject breathes through both nose and mouth as an adult, with breathing through nose occasionally mildly problematic, requiring active conscious engagement, although the subject was never “short of breath” in terms of lung capacity, etc.
The subject performed forced nasal lavage once daily for about two weeks. The forced nasal lavage was conducted intranasally over skin and normally in a shower. An aqueous solution or suspension of CGP at various concentration, such as about 7.5%, 3.75%, 2.5%, 2%, 1.5% by weight of dry CGP, was forced into one nostril and out of the other nostril using a closed plastic bottle with an internal stem feed. This procedure was repeated for each side of the nostrils. Some product was swallowed via nasal route and there was approx. 2 oz. fluid per nostril.
The subject applied CGP into their nostrils in a spray or a mist. A closed small plastic bottle with internal stem feed constructed to deliver fluid contents as mist was used. Typically, one application was performed in the morning. Each application consisted of two sprays per nostril, alternating sides, with full simultaneous deep breath inhalation or inspiration to draw the product up the nose and into the airway passages. The spray was also, on occasion, applied directly through the mouth to the throat with 1 or 2 sprays per application. An average spray delivery contained about 200 mg of a formulation of CGP per squeeze. The formulation contained about 2% to about 3.75% by weight of dry CGP.
In addition to the routine application of CGP to prevent or control symptoms associated with the respiratory system, the subject has also used CGP to relieve symptoms during an episode of a condition of airway/upper respiratory tract. […] At about 10:45 A.M., the subject applied a double-dose of NasoCell (1.75% CGP by weight) via nasal inhalation in each nostril. At about 11:30 AM, the subject's symptoms were much improved. The subject then self-administered another dose of NasoCell in each nostril. […] The subject had no trouble breathing while they were eating during lunch. […] The subject's throat was cleared of any obstructions and breathing sounds, and was wide open. The subject's nasal passages were reopened and voice cleared from an earlier morning huskiness, characteristic of a post nasal drip condition. It is noteworthy that this subject observed that after some weeks of usage, much reduced usage was required to “maintain”, and that this included the skipping of usage altogether, some days.

The mark [3] stands for this setting: before and after ragweed challenge, vs vehicle, n=5, One Way Anova, Dunnett's posttest.
The mark [4] stands for this setting: forced nasal lavage or spray/mist.

Entries after “also recorded” stand apart in the source; their conditions may differ.

In the case of calcium glycerophosphate, in test [1] (setting [3]), the “histamine levels in nasal lavage fluid” value is recorded as “no statistical significance was reached”, the “levels of leukotriene C4/D4/E4 in nasal lavage fluid” value is “no statistical significance was reached”, the “prostaglandin D2 levels in nasal lavage fluid” value is given as “no statistical significance was reached” and the “prostaglandin E2 levels in nasal lavage fluid” value is reported as “Levels of PGE2 decreased following ragweed challenge; also recorded: no statistical significance was reached”. For the same substance, in test [1] (compound vs vehicle treatment, statistical significance not reached), the “histamine, leukotriene and prostaglandin D2 and E2 levels in nasal lavage fluid” value is “partially altered”. For the same substance, the “prostaglandin E2 levels normalized to baseline (T0 = 100%)” value in test [1] (vs vehicle, Two Way Anova p<0.009, no significance at individual time points) is recorded as “a greater reduction in PGE2 levels following RW challenge; also recorded: significantly attenuated compared to vehicle treatment”. For the same substance, in test [1] (vs vehicle, n=5), the “AUC of histamine levels between 0 and 60 min” value is “histamine levels decreased in two of the 5 dogs, no statistical significance was reached”; the “AUC of prostaglandin D2 levels between 0 and 60 min” value was “prostaglandin D2 levels decreased in three dogs and increased in two dogs and no statistical significance was reached”. In test [2] (setting [4]), the coughing entry is “complete cessation of coughing” and the “reduction of post nasal drip” value is given as 95-98%. Moreover, in test [2] (forced nasal lavage, 1.5-7.5% by weight CGP, about 10-20 minutes after the lavage), the decreased drainage is listed as 90%. Also, the “throat-clearing diminished compared with prior state” value in test [2] (forced nasal lavage, about 20-60 minutes after the lavage) is listed as “about 90%”. In addition, the “symptoms (drip, cough, breathing)” value in test [2] (forced nasal lavage, about 1 hr to 12/24 hr after the lavage) was “no drip, no cough, and easy open breathing”. The “onset of relieving effects” value in test [2] (nasal spray/mist, about 2% to 3.75% by weight CGP, two sprays per nostril) is recorded as “almost instantaneously upon application”. In addition, the “duration of benefits post application” value in test [2] (nasal spray/mist, about 2% to 3.75% by weight CGP) is reported as “about four to eight hours”. Besides, the night breathing entry in test [2] (single spray per nostril at bedtime) is recorded as “appeared to produce better night breathing”.

(Values after patent publication US9861647B2 (Prelief Inc., priority 2007, dated 2018).)
